According to ChEMBL document CHEMBL1629559, “Real-time PCR detection of gyrA and parC mutations in Streptococcus pneumoniae” (2008):
≈ marks a conversion by molar mass, not a printed value.

Tests used:
Streptococcus pneumoniae [1] = experiment: Antibacterial activity against Streptococcus pneumoniae CIP104485 by agar dilution method; type: functional; details: CIP1044
Streptococcus pneumoniae [2] = experiment: Antibacterial activity against Streptococcus pneumoniae U2A1051 harboring gyrA Ser81Tyr mutant gene by agar disk diffusion method; type: functional
Streptococcus pneumoniae [3] = experiment: Antibacterial activity against Streptococcus pneumoniae R6 Tr6 harboring gyrA Ser81Phe mutant gene by agar dilution method; type: functional
Streptococcus pneumoniae [4] = experiment: Antibacterial activity against Streptococcus pneumoniae U2A1051 harboring gyrA Ser81Tyr mutant gene by agar dilution method; type: functional
Streptococcus pneumoniae [5] = experiment: Antibacterial activity against Streptococcus pneumoniae R6 Tr10 harboring gyrA Ser81Tyr parC Ser79Tyr mutant gene by agar disk diffusion method; type: functional
Streptococcus pneumoniae [6] = experiment: Antibacterial activity against Streptococcus pneumoniae CIP104485 by agar disk diffusion method; type: functional, CIP1044
Streptococcus pneumoniae [7] = experiment: Antibacterial activity against Streptococcus pneumoniae CP1000 by agar dilution method; type: functional
Streptococcus pneumoniae [8] = experiment: Antibacterial activity against Streptococcus pneumoniae U2A1060 harboring gyrA Ser81Phe parC Asp83His mutant gene by agar dilution method; type: functional
Streptococcus pneumoniae [9] = experiment: Antibacterial activity against Streptococcus pneumoniae R6 Tr1 harboring parC Ser79Tyr mutant gene by agar disk diffusion method; type: functional
Streptococcus pneumoniae [10] = experiment: Antibacterial activity against Streptococcus pneumoniae U2A1053 harboring parC Ser79Phe mutant gene by agar dilution method; type: functional
Streptococcus pneumoniae [11] = experiment: Antibacterial activity against Streptococcus pneumoniae U2A1050 harboring gyrA Ser81Phe mutant gene by agar disk diffusion method; type: functional
Streptococcus pneumoniae [12] = experiment: Antibacterial activity against Streptococcus pneumoniae R6 by agar disk diffusion method; type: functional
Streptococcus pneumoniae [13] = experiment: Antibacterial activity against Streptococcus pneumoniae U2A1056 harboring gyrA Ser81Tyr parC Asp83His mutant gene by agar dilution method; type: functional
Streptococcus pneumoniae [14] = experiment: Antibacterial activity against Streptococcus pneumoniae R6 by agar dilution method; type: functional
Streptococcus pneumoniae [15] = experiment: Antibacterial activity against Streptococcus pneumoniae U2A1053 harboring parC Ser79Phe mutant gene by agar disk diffusion method; type: functional
Streptococcus pneumoniae [16] = experiment: Antibacterial activity against Streptococcus pneumoniae U2A1681 harboring parC Ser79Tyr Asp83Ala mutant gene by agar dilution method; type: functional
Streptococcus pneumoniae [17] = experiment: Antibacterial activity against Streptococcus pneumoniae U2A1266 harboring gyrA Ser81Cys mutant gene by agar dilution method; type: functional
Streptococcus pneumoniae [18] = experiment: Antibacterial activity against Streptococcus pneumoniae U2A1411 harboring parC Asp83Gly mutant gene by agar disk diffusion method; type: functional
Streptococcus pneumoniae [19] = experiment: Antibacterial activity against Streptococcus pneumoniae U2A1266 harboring gyrA Ser81Cys mutant gene by agar disk diffusion method; type: functional
Streptococcus pneumoniae [20] = experiment: Antibacterial activity against Streptococcus pneumoniae U2A1413 harboring parC Ser79Tyr mutant gene by agar disk diffusion method; type: functional
Streptococcus pneumoniae [21] = experiment: Antibacterial activity against Streptococcus pneumoniae U2A1056 harboring gyrA Ser81Tyr parC Asp83His mutant gene by agar disk diffusion method; type: functional
Streptococcus pneumoniae [22] = experiment: Antibacterial activity against Streptococcus pneumoniae R6 Tr10 harboring gyrA Ser81Tyr parC Ser79Tyr mutant gene by agar dilution method; type: functional
Streptococcus pneumoniae [23] = experiment: Antibacterial activity against Streptococcus pneumoniae U2A1414 harboring gyrA Glu85Lys parC Ser79Phe mutant gene by agar disk diffusion method; type: functional
Streptococcus pneumoniae [24] = experiment: Antibacterial activity against Streptococcus pneumoniae U2A1060 harboring gyrA Ser81Phe parC Asp83His mutant gene by agar disk diffusion method; type: functional
Streptococcus pneumoniae [25] = experiment: Antibacterial activity against Streptococcus pneumoniae U2A1411 harboring parC Asp83Gly mutant gene by agar dilution method; type: functional
Streptococcus pneumoniae [26] = experiment: Antibacterial activity against Streptococcus pneumoniae U2A1686 harboring gyrA Glu85Lys mutant gene by agar disk diffusion method; type: functional
Streptococcus pneumoniae [27] = experiment: Antibacterial activity against Streptococcus pneumoniae U2A1050 harboring gyrA Ser81Phe mutant gene by agar dilution method; type: functional
Streptococcus pneumoniae [28] = experiment: Antibacterial activity against Streptococcus pneumoniae U2A1413 harboring parC Ser79Tyr mutant gene by agar dilution method; type: functional
Streptococcus pneumoniae [29] = experiment: Antibacterial activity against Streptococcus pneumoniae U2A1681 harboring parC Ser79Tyr Asp83Ala mutant gene by agar disk diffusion method; type: functional
Streptococcus pneumoniae [30] = experiment: Antibacterial activity against Streptococcus pneumoniae R6 Tr1 harboring parC Ser79Tyr mutant gene by agar dilution method; type: functional
Streptococcus pneumoniae [31] = experiment: Antibacterial activity against Streptococcus pneumoniae U2A1686 harboring gyrA Glu85Lys mutant gene by agar dilution method; type: functional
Streptococcus pneumoniae [32] = experiment: Antibacterial activity against Streptococcus pneumoniae R6 Tr6 harboring gyrA Ser81Phe mutant gene by agar disk diffusion method; type: functional
Streptococcus pneumoniae [33] = experiment: Antibacterial activity against Streptococcus pneumoniae U2A1414 harboring gyrA Glu85Lys parC Ser79Phe mutant gene by agar dilution method; type: functional
Streptococcus pneumoniae [34] = experiment: Antibacterial activity against Streptococcus pneumoniae CP1000 by agar disk diffusion method; type: functional
Streptococcus pneumoniae [35] = experiment: Antibacterial activity against Streptococcus pneumoniae H548 clinical isolate harboring gyrA Ser81Phe mutant gene by agar disk diffusion method; type: functional
Streptococcus pneumoniae [36] = experiment: Antibacterial activity against Streptococcus pneumoniae U2A1693 harboring parC Asp83Asn mutant gene by agar disk diffusion method; type: functional

| Structure (SMILES) | diameter of the inhibition zone (DIZ) (Streptococcus pneumoniae [2]) | diameter of the inhibition zone (DIZ) (Streptococcus pneumoniae [5]) | diameter of the inhibition zone (DIZ) (Streptococcus pneumoniae [6]) | diameter of the inhibition zone (DIZ) (Streptococcus pneumoniae [9]) | diameter of the inhibition zone (DIZ) (Streptococcus pneumoniae [11]) | diameter of the inhibition zone (DIZ) (Streptococcus pneumoniae [12]) | diameter of the inhibition zone (DIZ) (Streptococcus pneumoniae [15]) | diameter of the inhibition zone (DIZ) (Streptococcus pneumoniae [18]) | diameter of the inhibition zone (DIZ) (Streptococcus pneumoniae [19]) | diameter of the inhibition zone (DIZ) (Streptococcus pneumoniae [20]) | diameter of the inhibition zone (DIZ) (Streptococcus pneumoniae [21]) | diameter of the inhibition zone (DIZ) (Streptococcus pneumoniae [23]) | diameter of the inhibition zone (DIZ) (Streptococcus pneumoniae [24]) | diameter of the inhibition zone (DIZ) (Streptococcus pneumoniae [26]) | diameter of the inhibition zone (DIZ) (Streptococcus pneumoniae [29]) | diameter of the inhibition zone (DIZ) (Streptococcus pneumoniae [32]) | MIC (Streptococcus pneumoniae [33]) | diameter of the inhibition zone (DIZ) (Streptococcus pneumoniae [34]) | further results |
| --- | --- | --- | --- | --- | --- | --- | --- | --- | --- | --- | --- | --- | --- | --- | --- | --- | --- | --- | --- |
| O=C(O)c1cn(C2CC2)c2cc(N3CCNCC3)c(F)cc2c1=O [CIPROFLOXACIN] | 22 mm | 6 mm | 25 mm | 19 mm | 23 mm | 21 mm | 19 mm | 10 mm | 23 mm | 24 mm | 6 mm | 6 mm | 6 mm | 25 mm | 6 mm | 21 mm | > 32 µg/mL | 23 mm | MIC (Streptococcus pneumoniae [1]): 1 µg/mL (≈ 3.02 µM); MIC (Streptococcus pneumoniae [3]): 1 µg/mL (≈ 3.02 µM); MIC (Streptococcus pneumoniae [4]): 2 µg/mL (≈ 6.04 µM); MIC (Streptococcus pneumoniae [7]): 1 µg/mL (≈ 3.02 µM); MIC (Streptococcus pneumoniae [8]): > 32 µg/mL; MIC (Streptococcus pneumoniae [10]): 4 µg/mL (≈ 12.1 µM); MIC (Streptococcus pneumoniae [13]): 32 µg/mL (≈ 96.6 µM); MIC (Streptococcus pneumoniae [14]): 1 µg/mL (≈ 3.02 µM); MIC (Streptococcus pneumoniae [16]): > 32 µg/mL; MIC (Streptococcus pneumoniae [17]): 2 µg/mL (≈ 6.04 µM); MIC (Streptococcus pneumoniae [22]): > 32 µg/mL; MIC (Streptococcus pneumoniae [25]): > 32 µg/mL; MIC (Streptococcus pneumoniae [27]): 2 µg/mL (≈ 6.04 µM); MIC (Streptococcus pneumoniae [28]): 2 µg/mL (≈ 6.04 µM); MIC (Streptococcus pneumoniae [30]): 2 µg/mL (≈ 6.04 µM); MIC (Streptococcus pneumoniae [31]): 1 µg/mL (≈ 3.02 µM) |
| C[C@H]1COc2c(N3CCN(C)CC3)c(F)cc3c(=O)c(C(=O)O)cn1c23.C[C@H]1COc2c(N3CCN(C)CC3)c(F)cc3c(=O)c(C(=O)O)cn1c23.O [LEVOFLOXACIN] | 22 mm | 6 mm | 22 mm | 21 mm | 19 mm | 21 mm | 22 mm | 15 mm | 21 mm | 22 mm | 12 mm | 6 mm | 6 mm | 26 mm | 6 mm | 23 mm | > 32 µg/mL | 24 mm | diameter of the inhibition zone (DIZ) (Streptococcus pneumoniae [35]): 6 mm; diameter of the inhibition zone (DIZ) (Streptococcus pneumoniae [36]): 19 mm |
